From the supplement of paper PMC11061612

Legend:
Capivasertib = compound: C1CN(CCC1(C(=O)N[C@@H](CCO)C2=CC=C(C=C2)Cl)N)C3=NC=NC4=C3C=CN4 [Capivasertib]; details: max 10 µM
In short: (§1)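 Cancer cell lines in 1536-well plates (7.5 μl DMEM/F12 or RPMI, 10% FBS) were held 24 hours at 37°C and 5% CO2 and then dosed for 72 hours at a final DMSO of typically 0.2%. Viability was taken from CellTiter-Glo 2.0 luminescence, scaled between blank-well and DMSO-well means. Curves were fitted as two-parameter logistic models with a non-linear mixed effects model, from which the single-agent IC50 was taken.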

AZD1775 = compound: C=CCn1c(=O)c2cnc(Nc3ccc(N4CCN(C)CC4)cc3)nc2n1-c1cccc(C(C)(C)O)n1 [AZD1775]; details: max 3 µM
In short: as §1

Trametinib = compound: CC(=O)Nc1cccc(-n2c(=O)n(C3CC3)c(=O)c3c(Nc4ccc(I)cc4F)n(C)c(=O)c(C)c32)c1 [Trametinib]; details: max 1 µM
In short: as §1

Palbociclib = compound: CC(=O)c1c(C)c2cnc(Nc3ccc(N4CCNCC4)cn3)nc2n(C2CCCC2)c1=O [Palbociclib]; details: max 10 µM
In short: as §1

AZD1390 = compound: CC(C)n1c(=O)n(C)c2cnc3cc(F)c(-c4ccc(OCCCN5CCCCC5)nc4)cc3c21 [AZD1390]; details: max 0.3 µM
In short: as §1

Venetoclax = compound: CC1(C)CCC(CN2CCN(c3ccc(C(=O)NS(=O)(=O)c4ccc(NCC5CCOCC5)c([N+](=O)[O-])c4)c(Oc4cnc5[nH]ccc5c4)c3)CC2)=C(c2ccc(Cl)cc2)C1 [Venetoclax]; details: max 1 µM
In short: as §1

Dasatinib = compound: CC1=C(C(=CC=C1)Cl)NC(=O)C2=CN=C(S2)NC3=CC(=NC(=N3)C)N4CCN(CC4)CCO [Dasatinib]; details: max 2 µM
In short: as §1

SG3199 = compound: CC1=CN2[C@@H](C1)C=NC3=CC(=C(C=C3C2=O)OC)OCCCCCOC4=C(C=C5C(=C4)N=C[C@@H]6CC(=CN6C5=O)C)OC [SG3199]; details: max 0.001 µM
In short: as §1

AZD2811 = compound: CCN(CCO)CCCOc1ccc2c(Nc3cc(CC(=O)Nc4cccc(F)c4)[nH]n3)ncnc2c1 [AZD2811]; details: max 1 µM
In short: as §1

SN-38 = compound: CCc1c2c(nc3ccc(O)cc13)-c1cc3c(c(=O)n1C2)COC(=O)[C@]3(O)CC [SN-38]; details: max 0.3 µM
In short: as §1

AZD0156 = compound: CN(C)CCCOc1ccc(-c2ccc3ncc4c(c3c2)n(C2CCOCC2)c(=O)n4C)cn1 [AZD0156]; details: max 3 µM
In short: as §1

AZD4320 = compound: CN(CC[C@H](CSC1=CC=CC=C1)NC2=C(C=C(C=C2)S(=O)(=O)NC(=O)C3=CC=C(C=C3)N4CCC(CC4)[C@H](C5=CC=CC=C5C6=CC=C(C=C6)Cl)O)S(=O)(=O)C(F)(F)F)CCO [AZD4320]; details: max 1 µM
In short: as §1

Alisertib = compound: COc1cc(Nc2ncc3c(n2)-c2ccc(Cl)cc2C(c2c(F)cccc2OC)=NC3)ccc1C(=O)O [Alisertib]; details: max 10 µM
In short: as §1

Gefitinib = compound: COc1cc2ncnc(Nc3ccc(F)c(Cl)c3)c2cc1OCCCN1CCOCC1 [Gefitinib]; details: max 10 µM
In short: as §1

Prexasertib = compound: COc1cccc(OCCCN)c1-c1cc(Nc2cnc(C#N)cn2)n[nH]1 [Prexasertib]; details: max 1 µM
In short: as §1

Doxorubicin = compound: COc1cccc2c1C(=O)c1c(O)c3c(c(O)c1C2=O)C[C@@](O)(C(=O)CO)C[C@@H]3O[C@H]1C[C@H](N)[C@H](O)[C@H](C)O1 [Doxorubicin]; details: max 1 µM
In short: as §1

AZD5153 = compound: COc1nnc2ccc(N3CCC(c4ccc(OCCN5CCN(C)C(=O)[C@H]5C)cc4)CC3)nn12 [AZD5153]; details: max 1 µM
In short: as §1

Lapatinib = compound: CS(=O)(=O)CCNCc1ccc(-c2ccc3ncnc(Nc4ccc(OCc5cccc(F)c5)c(Cl)c4)c3c2)o1 [Lapatinib]; details: max 10 µM
In short: as §1

AZD8186 = compound: C[C@@H](Nc1cc(F)cc(F)c1)c1cc(C(=O)N(C)C)cc2c(=O)cc(N3CCOCC3)oc12 [AZD8186]; details: max 3 µM
In short: as §1

Crizotinib = compound: C[C@@H](Oc1cc(-c2cnn(C3CCNCC3)c2)cnc1N)c1c(Cl)ccc(F)c1Cl [Crizotinib]; details: max 10 µM
In short: as §1

Savolitinib = compound: C[C@@H](c1ccc2nccn2c1)n1nnc2ncc(-c3cnn(C)c3)nc21 [Savolitinib]; details: max 1 µM
In short: as §1

AZD6738 = compound: C[C@@H]1COCCN1C2=NC(=NC(=C2)C3(CC3)[S@](=N)(=O)C)C4=C5C=CNC5=NC=C4 [AZD6738]; details: max 10 µM
In short: as §1

AZD5991 = compound: Cc1c2c(nn1C)CSCc1cc(n(C)n1)CSc1cc(c3ccccc3c1)OCCCc1c(C(=O)O)n(C)c3c-2c(Cl)ccc13 [AZD5991]; details: max 1 µM
In short: as §1

AZD7648 = compound: Cc1cc2ncnn2cc1Nc1ncc2c(n1)n(C1CCOCC1)c(=O)n2C [AZD7648]; details: max 10 µM
In short: as §1

Taselisib = compound: Cc1nc(-c2cn3c(n2)-c2ccc(-c4cnn(C(C)(C)C(N)=O)c4)cc2OCC3)n(C(C)C)n1 [Taselisib]; details: max 10 µM
In short: as §1

Selumetinib = compound: Cn1cnc2c(F)c(Nc3ccc(Br)cc3Cl)c(C(=O)NOCCO)cc21 [Selumetinib]; details: max 10 µM
In short: as §1

MK-2206 = compound: NC1(c2ccc(-c3nc4ccn5c(=O)[nH]nc5c4cc3-c3ccccc3)cc2)CCC1 [MK-2206]; details: max 10 µM
In short: as §1

Olaparib = compound: O=C(c1cc(Cc2n[nH]c(=O)c3ccccc23)ccc1F)N1CCN(C(=O)C2CC2)CC1 [Olaparib]; details: max 10 µM
In short: as §1

SNU-5 (Gastric Carcinoma) was tested, and the “IC50, cell viability 72 h” value (Capivasertib) was over 10 µM, the “IC50, cell viability 72 h” value (AZD1775) was 1.85 µM and the “IC50, cell viability 72 h” value (Trametinib) was 0.0811 µM. The “IC50, cell viability 72 h” value (Palbociclib) was over 10 µM, the “IC50, cell viability 72 h” value (AZD1390) was over 0.3 µM and the “IC50, cell viability 72 h” value (Venetoclax) was over 1 µM. For the same cell line, the “IC50, cell viability 72 h” value (Dasatinib) was over 2 µM, the “IC50, cell viability 72 h” value (SG3199) was over 0.001 µM and the “IC50, cell viability 72 h” value (AZD2811) was over 1 µM. For the same cell line, the “IC50, cell viability 72 h” value (SN-38) was 0.00692 µM, the “IC50, cell viability 72 h” value (AZD0156) was over 3 µM and the “IC50, cell viability 72 h” value (AZD4320) was over 1 µM. The “IC50, cell viability 72 h” value (Alisertib) was over 10 µM, the “IC50, cell viability 72 h” value (Gefitinib) was over 10 µM and the “IC50, cell viability 72 h” value (Prexasertib) was 0.0181 µM. The “IC50, cell viability 72 h” value (Doxorubicin) was over 1 µM, the “IC50, cell viability 72 h” value (AZD5153) was over 1 µM and the “IC50, cell viability 72 h” value (Lapatinib) was over 10 µM. The “IC50, cell viability 72 h” value (AZD8186) was over 3 µM, the “IC50, cell viability 72 h” value (Crizotinib) was 0.0869 µM and the “IC50, cell viability 72 h” value (Savolitinib) was 0.00744 µM. For the same cell line, the “IC50, cell viability 72 h” value (AZD6738) was 1.31 µM, the “IC50, cell viability 72 h” value (AZD5991) was over 1 µM and the “IC50, cell viability 72 h” value (AZD7648) was over 10 µM. For the same cell line, the “IC50, cell viability 72 h” value (Taselisib) was over 10 µM, the “IC50, cell viability 72 h” value (Selumetinib) was 2.57 µM and the “IC50, cell viability 72 h” value (MK-2206) was over 10 µM. For the same cell line, the “IC50, cell viability 72 h” value (Olaparib) was over 10 µM.
